Data on two compounds can be found in ChEMBL document CHEMBL3526017, “Predicting the drug interaction potential of AMG 853, a dual antagonist of the D-prostanoid and chemoattractant receptor-homologous molecule expressed on T helper 2 cells receptors” (Drug Metab Dispos, 2012).

In series [1] the target is T1, Cytochrome P450 2C8 (Homo sapiens, UniProt P10632).
T1 sequence (P10632 whole entry): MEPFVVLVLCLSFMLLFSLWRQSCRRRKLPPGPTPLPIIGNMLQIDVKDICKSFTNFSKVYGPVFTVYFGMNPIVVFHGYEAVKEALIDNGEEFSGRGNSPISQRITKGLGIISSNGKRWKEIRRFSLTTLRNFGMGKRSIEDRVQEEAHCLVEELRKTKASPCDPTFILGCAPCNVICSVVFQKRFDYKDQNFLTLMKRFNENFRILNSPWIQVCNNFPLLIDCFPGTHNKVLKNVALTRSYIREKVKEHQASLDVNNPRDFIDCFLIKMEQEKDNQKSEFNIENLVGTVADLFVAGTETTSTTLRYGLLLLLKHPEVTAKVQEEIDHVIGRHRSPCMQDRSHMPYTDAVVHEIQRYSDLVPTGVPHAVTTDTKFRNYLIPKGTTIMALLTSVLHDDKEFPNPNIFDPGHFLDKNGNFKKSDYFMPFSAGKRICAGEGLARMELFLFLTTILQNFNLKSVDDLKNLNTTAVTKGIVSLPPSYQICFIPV
The experiment in a line: Linear mixed inhibition of CYP2C8 in human liver microsomes assessed as paclitaxel 6-hydroxylation after 20 mins by LC-MS/MS analysis. The format is ADME.

The target in series [2] is T1, Cytochrome P450 2C8. The experiment in a line: Linear mixed inhibition of CYP2C8 in human liver microsomes assessed as rosiglitazone demethylation after 20 mins by LC-MS/MS analysis. Type of series: ADME.
The nature of series [3]: Drug metabolism in human liver microsomes assessed as CYP3A5*1/*1-compound formation after 15 mins by LC-MS/MS analysis in presence of UDPGA. Type of series: ADME. To be noted: 0.25 h. In general terms: Liver microsomes are a subcellular fraction often used to study metabolism.
In series [4] the target is T2, UDP-glucuronosyltransferase 1A3 (Homo sapiens, UniProt P35503).
T2 sequence (P35503 whole entry): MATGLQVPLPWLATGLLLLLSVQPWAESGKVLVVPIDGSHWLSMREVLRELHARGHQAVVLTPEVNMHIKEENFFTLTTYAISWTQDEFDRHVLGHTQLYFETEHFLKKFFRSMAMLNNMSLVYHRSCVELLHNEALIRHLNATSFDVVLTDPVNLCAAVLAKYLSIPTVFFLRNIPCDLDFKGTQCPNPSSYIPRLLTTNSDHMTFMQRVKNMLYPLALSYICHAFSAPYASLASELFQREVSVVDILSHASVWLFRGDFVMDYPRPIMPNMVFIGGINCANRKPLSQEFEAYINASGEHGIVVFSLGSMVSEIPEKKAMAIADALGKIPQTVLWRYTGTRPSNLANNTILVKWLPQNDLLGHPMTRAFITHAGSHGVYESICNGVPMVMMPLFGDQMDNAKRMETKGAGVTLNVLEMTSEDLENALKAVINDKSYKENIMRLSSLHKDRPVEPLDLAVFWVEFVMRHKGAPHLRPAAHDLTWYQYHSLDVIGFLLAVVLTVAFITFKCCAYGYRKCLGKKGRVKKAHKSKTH
The experiment in a line: Drug metabolism assessed as human recombinant UGT1A3-mediated compound formation treated with AMG 853 at 10 uM after 30 mins by LC-MS/MS analysis. The format is ADME. To be noted: recombinant enzyme, 0.5 h.

A further series concerns Liver microsome. The experiment in a line: Drug metabolism in human liver microsomes treated with AMG 853 after 45 mins by LC-MS/MS analysis in presence of UDPGA. The format is ADME. The settings on record: 0.75 h.
Series [5] deals with T2, UDP-glucuronosyltransferase 1A3. As to the kind of experiment: Drug metabolism assessed as human recombinant UGT1A3-mediated compound formation treated with AMG 853 after 45 mins by LC-MS/MS analysis in presence of UDPGA. Type of series: ADME. The settings on record: recombinant enzyme, 0.75 h.
Another series deals with CYP2C9. The experiment in a line: Upregulation of CYP2C9 mRNA expression in human hepatocytes at 0.3 to 30 uM treated every 24 hrs for 2 days measured on day 5 relative to control. Type of series: ADME, cell-based, Hepatocyte. The settings on record: read-out: FC.
Series [6] is described as follows: Cmax in healthy human at 50 mg, po. On the set-up: dose 50 mg, route oral. To be noted: in vivo. The format is ADME, organism-based.
Series [7] in a line: AUC (0 to infinity) in healthy human at 50 mg, po. The format is ADME, organism-based. On the set-up: dose 50 mg, route oral, time infinity. To be noted: plasma.
The nature of series [8]: Drug metabolism in human liver microsomes assessed as CYP3A5*1/*1-mediated (2S,3S,4S,5R,6S)-6-(2-(4-(4-(tert-butylcarbamoyl)-2-(2-chloro-4-cyclopropylphenylsulfonamido)phenoxy)-5-chloro-2-fluorophenyl)acetoxy)-3,4,5-trihydroxytetrahydro-2H-pyran-2-carboxylic acid formation after 15 mins by LC-MS/MS analysis in presence of UDPGA and NADPH. To be noted: 0.25 h. The format is ADME.

A short description of series [9]: Drug metabolism in human liver microsomes assessed as […]-mediated (2S,3S,4S,5R,6S)-6-(2-(4-(4-(tert-butylcarbamoyl)-2-(2-chloro-4-cyclopropylphenylsulfonamido)phenoxy)-5-chloro-2-fluorophenyl)acetoxy)-3,4,5-trihydroxytetrahydro-2H-pyran-2-carboxylic acid formation after 15 mins by LC-MS/MS analysis in presence of UDPGA. Type of series: ADME. The settings on record: 0.25 h.

The target of series [10] is UDP-glucuronosyltransferase 2B17 (Homo sapiens, UniProt O75795). The experiment in a line: Drug metabolism assessed as human recombinant UGT2B17-mediated (2S,3S,4S,5R,6S)-6-(2-(4-(4-(tert-butylcarbamoyl)-2-(2-chloro-4-cyclopropylphenylsulfonamido)phenoxy)-5-chloro-2-fluorophenyl)acetoxy)-3,4,5-trihydroxytetrahydro-2H-pyran-2-carboxylic acid formation at 10 uM after 30 mins by LC-MS/MS analysis. Type of series: ADME. The settings on record: recombinant enzyme, 0.5 h.

For the next series, the target named is T3, Cytochrome P450 2J2 (Homo sapiens, UniProt P51589).
T3 sequence (P51589 whole entry): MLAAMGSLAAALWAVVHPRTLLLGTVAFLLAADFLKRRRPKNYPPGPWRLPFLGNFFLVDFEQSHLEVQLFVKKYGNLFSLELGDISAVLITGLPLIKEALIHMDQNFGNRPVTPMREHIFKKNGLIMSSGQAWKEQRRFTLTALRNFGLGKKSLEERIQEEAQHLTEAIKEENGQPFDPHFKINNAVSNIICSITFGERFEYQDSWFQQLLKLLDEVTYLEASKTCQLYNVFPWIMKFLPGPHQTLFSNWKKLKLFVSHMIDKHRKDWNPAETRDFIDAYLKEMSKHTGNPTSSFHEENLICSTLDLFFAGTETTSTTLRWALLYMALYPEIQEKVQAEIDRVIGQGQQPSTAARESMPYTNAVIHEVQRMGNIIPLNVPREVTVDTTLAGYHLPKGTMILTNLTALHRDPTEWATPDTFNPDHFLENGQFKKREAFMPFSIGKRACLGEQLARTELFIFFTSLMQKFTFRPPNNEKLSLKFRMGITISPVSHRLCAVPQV
As to the kind of experiment: Drug metabolism assessed as recombinant CYP2J2 (unknown origin)-mediated 2-(5-chloro-4-(2-(2-chloro-4-cyclopropylphenylsulfonamido)-4-(1-hydroxy-2-methylpropan-2-ylcarbamoyl)phenoxy)-2-fluorophenyl)acetic acid formation at 10 uM after 30 mins by LC-MS/MS analysis. The format is ADME. To be noted: recombinant enzyme, 0.5 h.

Series [11] deals with T1, Cytochrome P450 2C8. As to the kind of experiment: Drug metabolism assessed as recombinant CYP2C8 (unknown origin)-mediated 2-(5-chloro-4-(2-(2-chloro-4-cyclopropylphenylsulfonamido)-4-(1-hydroxy-2-methylpropan-2-ylcarbamoyl)phenoxy)-2-fluorophenyl)acetic acid formation at 10 uM after 30 mins by LC-MS/MS analysis. The format is ADME. To be noted: recombinant enzyme, 0.5 h.

For a further series, the target named is Cytochrome P450 2C19 (Homo sapiens, UniProt P33261). The experiment in a line: Drug metabolism assessed as recombinant CYP2C19 (unknown origin)-mediated 2-(4-(4-(tert-butylcarbamoyl)-2-(2-chloro-4-(1-hydroxycyclopropyl)phenylsulfonamido)phenoxy)-5-chloro-2-fluorophenyl)acetic acid formation at 10 uM after 30 mins by LC-MS/MS analysis. The format is ADME. The settings on record: recombinant enzyme, 0.5 h.
Cytochrome P450 2C19, sequence (P33261 whole entry): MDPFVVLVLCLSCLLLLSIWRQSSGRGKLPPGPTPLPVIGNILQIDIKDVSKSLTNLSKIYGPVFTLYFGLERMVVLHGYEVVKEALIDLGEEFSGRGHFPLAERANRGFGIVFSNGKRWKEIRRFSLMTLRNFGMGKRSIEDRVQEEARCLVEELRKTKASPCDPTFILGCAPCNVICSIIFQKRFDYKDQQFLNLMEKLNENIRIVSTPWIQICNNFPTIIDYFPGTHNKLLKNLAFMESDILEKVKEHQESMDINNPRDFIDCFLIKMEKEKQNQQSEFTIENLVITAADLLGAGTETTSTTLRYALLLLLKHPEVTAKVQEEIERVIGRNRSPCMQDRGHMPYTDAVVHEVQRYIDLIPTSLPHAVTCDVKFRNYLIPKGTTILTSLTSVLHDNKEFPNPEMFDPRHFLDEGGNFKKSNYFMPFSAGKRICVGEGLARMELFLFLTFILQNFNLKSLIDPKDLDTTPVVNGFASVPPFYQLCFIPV

UDP-glucuronosyltransferase 2B17, sequence (O75795 whole entry): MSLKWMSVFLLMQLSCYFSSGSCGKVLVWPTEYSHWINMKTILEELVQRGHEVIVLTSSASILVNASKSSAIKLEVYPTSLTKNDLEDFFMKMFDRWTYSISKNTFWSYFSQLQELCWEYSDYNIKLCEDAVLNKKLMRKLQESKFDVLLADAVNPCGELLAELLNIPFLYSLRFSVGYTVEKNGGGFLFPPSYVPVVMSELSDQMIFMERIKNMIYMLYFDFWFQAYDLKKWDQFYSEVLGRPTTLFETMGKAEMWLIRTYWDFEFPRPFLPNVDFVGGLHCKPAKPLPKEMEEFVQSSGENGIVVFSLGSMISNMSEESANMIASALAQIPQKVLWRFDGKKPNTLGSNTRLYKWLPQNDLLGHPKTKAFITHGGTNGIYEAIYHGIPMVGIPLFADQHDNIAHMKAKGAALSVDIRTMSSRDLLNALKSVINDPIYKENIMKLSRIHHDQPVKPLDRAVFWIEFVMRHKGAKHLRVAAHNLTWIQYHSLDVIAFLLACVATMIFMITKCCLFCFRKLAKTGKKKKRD

By Ki is commonly meant the dissociation constant of the complex between target and ligand, obtained from inhibition or displacement. Broadly, the Vmax is the rate approached at saturating substrate. In the case of `CC(C)(C)NC(=O)c1ccc(Oc2cc(F)c(CC(=O)O[C@@H]3O[C@H](C(=O)O)[C@@H](O)[C@H](O)[C@H]3O)cc2Cl)c(NS(=O)(=O)c2ccc(C3CC3)cc2Cl)c1`, the inhibition constant Ki worked out at 2.7 µM at Cytochrome P450 2C8 [1] and 6.9 µM at Cytochrome P450 2C8 [2]. Besides, the Drug metabolism entry in [3] and in series [4] was “metabolite_detected” throughout. Moreover, the S50 in the series with Liver microsome is 205.4 µM; in series [5], 379.2 µM. For the same compound, the Vmax is given as 43 pmol/min/mg in the series with Liver microsome and 39.1 pmol/min/mg in series [5].
The term Cmax denotes the highest concentration seen after dosing. What is called AUC(0-inf) is total exposure, with the tail of the curve extrapolated. Turning to `CC(C)(C)NC(=O)c1ccc(Oc2cc(F)c(CC(=O)O)cc2Cl)c(NS(=O)(=O)c2ccc(C3CC3)cc2Cl)c1` [VIDUPIPRANT], the fold induction at 48 h, up to 30 µM in the series with CYP2C9 is 1.7. The maximum concentration (Cmax) in [6] was 227 ng/mL. The compound also yielded an AUC(0-inf) in [7] of 671 ng·h/mL. Also, the Drug metabolism entry is “metabolite_not_detected” in [8]; “metabolite_detected” in series [9]; “metabolite_not_detected” in series [10]; “metabolite_detected” at Cytochrome P450 2J2; “metabolite_detected” on Cytochrome P450 2C8 [11]; “metabolite_detected” on Cytochrome P450 2C19.
